Test results taken from patent publication US6958233B2, “Process for the preparation of pharmaceutically acceptable salts of (R,S)-S-adenosyl-L-methionine” (Chementecno S.r.l., priority 2000, dated 2005).

What was measured:
[1] = HPLC analysis of the (S)-(+)-SAMe / (R)-(+)-SAMe diastereoisomer content (stability in time); format: physicochemical; conditions: after four months from the date of production
Method: 3 samples of SAMIR® [(R,S)-SAMe], produced by Knoll Farmaceutici S.p.A., were analyzed by HPLC. The values measured for each sample are as follows:
The products obtained according to the process of the invention in EXAMPLES 1-3, samples 4-6 respectively, were analyzed, similarly to what has been described in example 4, after four months from the date of their production.
The measured values for each sample were as follows: […]

[2] = test system: enzymatic transmethylation; conditions: De La Haba et al., J.A.C.S. 1959; cited from earlier work
[3] = Wu et al., Biochemistry 1983; cited from earlier work

Compound	percentage of (R)-(+)-SAMe [1]	percentage of (S)-(+)-SAMe [1]	percentage of (R)-(+)-SAMe ([1]; listed as sample N. 4)	enzymatic activity for the transmethylation [2]	formation of the inactive diastereoisomer (R)-(+)-SAMe by spontaneous racemisation [3]
C[S+](CC[C@H](N)C(=O)[O-])C[C@H]1O[C@@H](n2cnc3c(N)ncnc32)[C@H](O)[C@@H]1O.Cc1ccc(S(=O)(=O)O)cc1.O=S(=O)(O)O.O=S(=O)(O)O (single isomer, unassigned) [SAMPLE 4]	1%	99%	1%		
C[S+](CC[C@H](N)C(=O)[O-])C[C@H]1O[C@@H](n2cnc3c(N)ncnc32)[C@H](O)[C@@H]1O.Cc1ccc(S(=O)(=O)O)cc1.O=S(=O)(O)O.O=S(=O)(O)O (single isomer, unassigned) [SAMPLE 5, (SS, RS)-SAMe disulphate paratoluensulphonate]	2%	98%			
C[S+](CC[C@H](N)C(=O)[O-])C[C@H]1O[C@@H](n2cnc3c(N)ncnc32)[C@H](O)[C@@H]1O.Cc1ccc(S(=O)(=O)O)cc1.O=S(=O)(O)O.O=S(=O)(O)O (single isomer, unassigned) [SAMPLE 6]	2%	98%			
C[S@@+](CC[C@H](N)C(=O)[O-])C[C@H]1O[C@@H](n2cnc3c(N)ncnc32)C(O)C1O (stereo in doubt) [(R)-(+)-SAMe, (R)-(+)-S-adenosyl-L-methionine]				inactive	
C[S@@+](CC[C@H](N)C(=O)[O-])C[C@H]1O[C@@H](n2cnc3c(N)ncnc32)C(O)C1O (stereo in doubt) [(S)-(+)-SAMe, (S)-(+)-S-adenosyl-L-methionine]				enzymatically active	about 20%
